From patent US6479435B1, “Diaryl ethers and processes for their preparation and herbicidal and desiccant compositions containing them” (ISK Americas Incorporated, priority 1997, dated 2002)

Experiments:
Assay type in all cases: in vivo
[1] = tested on: barnyardgrass (Echinochloa crusgalli, ECHCG); test: Post-emerge greenhouse herbicide test, phytotoxicity rating; conditions: Echinochloa crus-galli, post-emergence, 336 h, 14 days after application, scale 0-100; for pest or weed control at 63 g/ha: rate 63 g ai/ha; for pest or weed control at 500 g/ha: rate 500 g ai/ha
Outline: (§1)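 Scores use a 0 (no damage) to 100 (complete kill) scale, taken 14 days after a foliar spray. Acetone solutions with 0.25% v/v non-ionic surfactant were applied by track sprayer at 187 l/ha and 63-1000 g ai/ha to bottom-watered 2-3 leaf plants.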

[2] = tested on: green foxtail (Setaria viridis, SETVI); test: as above; conditions: Setaria viridis, post-emergence, 336 h, 14 days after application, scale 0-100; for pest or weed control at 63 g/ha: rate 63 g ai/ha; for pest or weed control at 500 g/ha: rate 500 g ai/ha
Outline: as §1

[3] = tested on: redroot pigweed (Amaranthus retroflexus, AMARE); test: as above; conditions: Amaranthus retroflexus, post-emergence, 336 h, 14 days after application, scale 0-100; for pest or weed control at 63 g/ha: rate 63 g ai/ha; for pest or weed control at 500 g/ha: rate 500 g ai/ha
Outline: as §1

[4] = tested on: sicklepod (Cassia obtusifolia, CASOB); test: as above; conditions: Senna obtusifolia, post-emergence, 336 h, 14 days after application, scale 0-100; for pest or weed control at 63 g/ha: rate 63 g ai/ha; for pest or weed control at 500 g/ha: rate 500 g ai/ha
Outline: as §1

[5] = tested on: ivyleaf morningglory (Ipomoea hederacea, IPOHE); test: as above; conditions: Ipomoea, post-emergence, 336 h, 14 days after application, scale 0-100; for pest or weed control at 63 g/ha: rate 63 g ai/ha; for pest or weed control at 500 g/ha: rate 500 g ai/ha
Outline: as §1

[6] = tested on: Johnsongrass (Sorghum halepense, SORHA); test: as above; conditions: Sorghum halepense, post-emergence, 336 h, 14 days after application, scale 0-100; for pest or weed control at 63 g/ha: rate 63 g ai/ha; for pest or weed control at 500 g/ha: rate 500 g ai/ha
Outline: as §1

[7] = tested on: lambsquarters (Chenopodium album, CHEAL); test: as above; conditions: Chenopodium album, post-emergence, 336 h, 14 days after application, scale 0-100; for pest or weed control at 63 g/ha: rate 63 g ai/ha; for pest or weed control at 500 g/ha: rate 500 g ai/ha
Outline: as §1

[8] = tested on: velvetleaf (Abutilon theophrasti, ABUTH); test: as above; conditions: Abutilon theophrasti, post-emergence, 336 h, 14 days after application, scale 0-100; for pest or weed control at 63 g/ha: rate 63 g ai/ha; for pest or weed control at 500 g/ha: rate 500 g ai/ha
Outline: as §1

[9] = tested on: large crabgrass (Digitaria sanguinalis, DIGSA); test: as above; conditions: Digitaria sanguinalis, post-emergence, 336 h, 14 days after application, scale 0-100; for pest or weed control at 63 g/ha: rate 63 g ai/ha; for pest or weed control at 500 g/ha: rate 500 g ai/ha
Outline: as §1

[10] = tested on: green foxtail (Setaria viridis, SETVI); test: Pre-emerge greenhouse herbicide test, phytotoxicity rating; conditions: Setaria viridis, pre-emergence, 336 h, 14 days after application, rating scale 0-100; for pest or weed control at 125 g/ha: Rate 125 g al/ha; for pest or weed control at 500 g/ha: Rate 500 g al/ha
Outline: (§2)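 Visual 0–100 injury rating (100 = all plants dead) taken 14 days after treatment. Rates of 125–1000 g ai/ha in acetone, 187 l/ha, were sprayed onto soil one day post-sowing; pots were surface-watered to incorporate, then bottom-watered.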

[11] = tested on: redroot pigweed (Amaranthus retroflexus, AMARE); test: as above; conditions: Amaranthus retroflexus, pre-emergence, 336 h, 14 days after application, rating scale 0-100; for pest or weed control at 125 g/ha: Rate 125 g al/ha; for pest or weed control at 500 g/ha: Rate 500 g al/ha
Outline: as §2

[12] = tested on: ivyleaf morningglory (Ipomoea hederacea, IPOHE); test: as above; conditions: Ipomoea, pre-emergence, 336 h, 14 days after application, rating scale 0-100; for pest or weed control at 125 g/ha: Rate 125 g al/ha; for pest or weed control at 500 g/ha: Rate 500 g al/ha
Outline: as §2

[13] = tested on: lambsquarters (Chenopodium album, CHEAL); test: as above; conditions: Chenopodium album, pre-emergence, 336 h, 14 days after application, rating scale 0-100; for pest or weed control at 125 g/ha: Rate 125 g al/ha; for pest or weed control at 500 g/ha: Rate 500 g al/ha
Outline: as §2

[14] = tested on: velvetleaf (Abutilon theophrasti, ABUTH); test: as above; conditions: Abutilon theophrasti, pre-emergence, 336 h, 14 days after application, rating scale 0-100; for pest or weed control at 125 g/ha: Rate 125 g al/ha; for pest or weed control at 500 g/ha: Rate 500 g al/ha
Outline: as §2

[15] = tested on: large crabgrass (Digitaria sanguinalis, DIGSA); test: as above; conditions: Digitaria sanguinalis, pre-emergence, 336 h, 14 days after application, rating scale 0-100; for pest or weed control at 125 g/ha: Rate 125 g al/ha; for pest or weed control at 500 g/ha: Rate 500 g al/ha
Outline: as §2

SMILES	pest or weed control at 63 g/ha [1]	pest or weed control at 500 g/ha [1]	pest or weed control at 63 g/ha [2]	pest or weed control at 500 g/ha [2]	pest or weed control at 63 g/ha [3]	pest or weed control at 500 g/ha [3]	pest or weed control at 63 g/ha [4]	pest or weed control at 500 g/ha [4]	pest or weed control at 63 g/ha [5]	pest or weed control at 500 g/ha [5]	pest or weed control at 63 g/ha [6]	pest or weed control at 500 g/ha [6]	pest or weed control at 63 g/ha [7]	pest or weed control at 500 g/ha [7]	pest or weed control at 63 g/ha [8]	pest or weed control at 500 g/ha [8]	pest or weed control at 63 g/ha [9]	pest or weed control at 500 g/ha [9]	pest or weed control at 125 g/ha [10]	pest or weed control at 500 g/ha [10]	further results
Nn1c(C(F)(F)F)cc(=O)n(-c2cc(Oc3cc(C(F)(F)F)ccn3)c(Cl)cc2F)c1=O [Compound 9-8, 1-Amino-3-[4-chloro-2-fluoro-5-(4-trifluoromethyl-2-pyridyloxy)phenyl]-6-trifluoromethyl-1,2,3,4-tetrahydropyrimidine-2,4-dione]	10%	95%	30%	75%	100%	100%	30%	30%	95%	100%	30%	90%	95%	100%	100%	100%	10%	30%	40%	100%	pest or weed control at 125 g/ha [11]: 100%; pest or weed control at 500 g/ha [11]: 100%; pest or weed control at 125 g/ha [12]: 95%; pest or weed control at 500 g/ha [12]: 100%; pest or weed control at 125 g/ha [13]: 100%; pest or weed control at 500 g/ha [13]: 100%; pest or weed control at 125 g/ha [14]: 100%; pest or weed control at 500 g/ha [14]: 100%; pest or weed control at 125 g/ha [15]: 20%; pest or weed control at 500 g/ha [15]: 100%
Nn1c(C(F)(F)F)cc(=O)n(-c2cc(Oc3cc([N+](=O)[O-])cc(C(F)(F)F)c3)c(Cl)cc2F)c1=O [Compound 9-23, 1-Amino-3-[4-chloro-2-fluoro-5-(3-nitro-5-trifluoromethylphenoxy)phenyl]-6-trifluoromethyl-1,2,3,4-tetrahydropyrimidine-2,4-dione]	0%	50%	0%	10%	85%	85%	10%	30%	50%	75%	0%	30%	70%	95%	45%	90%	0%	0%	40%	100%	pest or weed control at 125 g/ha [11]: 100%; pest or weed control at 500 g/ha [11]: 100%; pest or weed control at 125 g/ha [12]: 0%; pest or weed control at 500 g/ha [12]: 0%; pest or weed control at 125 g/ha [13]: 95%; pest or weed control at 500 g/ha [13]: 100%; pest or weed control at 125 g/ha [14]: 40%; pest or weed control at 500 g/ha [14]: 100%; pest or weed control at 125 g/ha [15]: 10%; pest or weed control at 500 g/ha [15]: 95%
Nn1c(C(F)(F)F)cc(=O)n(-c2cc(Oc3nc(F)c(F)cc3F)c(Cl)cc2F)c1=O [Compound 9-6, 1-Amino-3-[4-chloro-2-fluoro-5-(3,5,6-trifluoro-2-pyridyloxy)phenyl]-6-trifluoromethyl-1,2,3,4-tetrahydropyrimidine-2,4-dione]	90%	100%	20%	100%	100%	100%	40%	100%	100%	100%	100%	100%	100%	100%	100%	100%	90%	100%	100%	100%	pest or weed control at 125 g/ha [11]: 100%; pest or weed control at 500 g/ha [11]: 100%; pest or weed control at 125 g/ha [12]: 90%; pest or weed control at 500 g/ha [12]: 95%; pest or weed control at 125 g/ha [13]: 100%; pest or weed control at 500 g/ha [13]: 100%; pest or weed control at 125 g/ha [14]: 100%; pest or weed control at 500 g/ha [14]: 100%; pest or weed control at 125 g/ha [15]: 100%; pest or weed control at 500 g/ha [15]: 100%
